Laboratory results taken from PubChem BioAssay AID699 (NMMLSC, 2007).
Calls of active or inactive are those of the source. How the calls were made is not given here.

Target: fMet-Leu-Phe receptor (Homo sapiens) (UniProt P21462)
Assay: inhibition of ligand-evoked FPR calcium flux – cell-based, calcium response, confirmation (AID 699)
Conditions: FPR1 cells, ligand-induced calcium response inhibition; hits give high values; concentration not given here

Chain of fMet-Leu-Phe receptor (Homo sapiens) (P21462 whole entry, looked up): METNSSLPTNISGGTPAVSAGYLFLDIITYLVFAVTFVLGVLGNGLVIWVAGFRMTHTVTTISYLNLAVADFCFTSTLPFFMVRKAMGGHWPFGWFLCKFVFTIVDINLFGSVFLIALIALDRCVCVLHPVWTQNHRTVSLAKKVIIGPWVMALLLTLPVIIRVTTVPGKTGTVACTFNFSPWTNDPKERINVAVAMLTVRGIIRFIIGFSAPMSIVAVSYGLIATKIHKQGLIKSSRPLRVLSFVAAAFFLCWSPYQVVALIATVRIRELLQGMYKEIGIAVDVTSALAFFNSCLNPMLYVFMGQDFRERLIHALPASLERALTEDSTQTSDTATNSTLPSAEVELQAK

SMILES | inhibition
CCOc1ccc(C2C(C(=O)c3ccco3)=C(O)C(=O)N2CCCn2ccnc2)cc1 (centres undefined) | 23.6% (inactive)
Cc1[nH]n2c(=O)c(C#N)c(-c3ccccc3)nc2c1-c1ccccc1 | 104%
COc1cc(C2C(C(=O)c3ccco3)=C(O)C(=O)N2CCc2ccccc2)ccc1O (centres undefined) | 98.8%
CCCCC1C(=O)N(c2ccccc2)N(c2ccccc2)C1=O | 96.9%
O=C(C1=C(O)C(=O)N(Cc2ccccc2)C1c1ccncc1)c1ccco1 (centres undefined) | -0% (inactive)
CC(C)CN(CC(C)C)C(=O)CS(=O)(=O)Cc1ccccc1 | -0% (inactive)
COCCCN1C(=O)C(=O)/C(=C(/O)c2ccccc2)C1c1ccc2c(c1)OCO2 (centres undefined) | 101%
Cc1[nH]n2c(=O)c3c(nc2c1-c1ccc(Cl)cc1)CCC3 | -0% (inactive)
Cc1ccsc1C1C2=C(CC(C)(C)CC2=O)Nc2ncnn21 (centres undefined) | -0% (inactive)
COCCCN1C(=O)C(O)=C(C(=O)c2ccco2)C1c1ccc(Br)cc1 (centres undefined) | 39.8% (inactive)
COC(=O)c1[nH]c(C)c(/C(O)=C2\C(=O)C(=O)N(CCN3CCOCC3)C2c2cccs2)c1C (centres undefined) | 93.9%
CCCOc1ccc(C2C(C(=O)c3ccc(C)o3)=C(O)C(=O)N2CCCn2ccnc2)cc1 (centres undefined) | 21.4% (inactive)
O=C(NC1CCCC1)c1sc(=S)n2c1[nH]c(=O)c1ccccc12 | 97%
CC1(C)S[C@@H]2[C@H](NC(=O)Cc3ccccc3)C(=O)N2[C@H]1C(=O)O | 79.1% (inactive)
Cc1ccc(C2/C(=C(/O)c3ccc(Cl)cc3)C(=O)C(=O)N2CC2CCCO2)o1 (centres undefined) | 15.5% (inactive)
COc1ccccc1-c1c(C)oc2cc(OC(=O)c3ccco3)ccc2c1=O | 83.2% (inactive)
COCCN1C(=O)C(O)=C(C(=O)c2cccs2)C1c1ccccc1 (centres undefined) | 95.1%

SMILES | inhibition
COCCCN1C(=O)C(O)=C(C(=O)c2ccco2)C1c1ccccc1 (centres undefined) | 56.7% (inactive)
Cc1c(C(=O)NC2CCCc3ccccc32)oc2ccc(S(=O)(=O)N3CCOCC3)cc12 (centres undefined) | 66.4% (inactive)
COCCCN1C(=O)C(O)=C(C(=O)c2ccco2)C1c1cccc(Br)c1 (centres undefined) | 90.9%
COC(=O)c1[nH]c(C)c(/C(O)=C2\C(=O)C(=O)N(CCCN3CCOCC3)C2c2ccccn2)c1C (centres undefined) | 26.5% (inactive)
O=C1C(C23CC4CC(CC(C4)C2)C3)C(=O)N(c2ccccc2)N1c1ccccc1 | -0% (inactive)
COc1ccccc1C1/C(=C(/O)c2ccccc2)C(=O)C(=O)N1CC(C)C (centres undefined) | 99%
COc1ccc(Cl)cc1-n1c(=S)sc2c(=O)[nH]c(SCC(=O)NCC3CCCO3)nc21 (centres undefined) | 100%
C=CCOc1cccc(C2C(C(=O)c3ccco3)=C(O)C(=O)N2CCN2CCOCC2)c1 (centres undefined) | 102%
COc1ccc(OC)c(C2C(C(=O)c3cccs3)=C(O)C(=O)N2c2cc(C)on2)c1 (centres undefined) | 93.8%
CCOc1cccc(/C(O)=C2/C(=O)C(=O)N(CCOC)C2c2ccc(C)o2)c1 (centres undefined) | 90.5%
COc1ccccc1Oc1c(C)oc2cc(OC(=O)c3ccco3)ccc2c1=O | 93.7%
O=C(C1=C(O)C(=O)N(Cc2ccccc2)C1c1ccco1)c1ccco1 (centres undefined) | 56.9% (inactive)
O=C1C(CCS(=O)c2ccccc2)C(=O)N(c2ccccc2)N1c1ccccc1 (centres undefined) | -0% (inactive)
CCCOc1ccc(C2C(C(=O)c3ccco3)=C(O)C(=O)N2CCCn2ccnc2)cc1 (centres undefined) | 98.4%
C=CCOc1ccc(C2C(C(=O)c3ccco3)=C(O)C(=O)N2Cc2cccnc2)cc1 (centres undefined) | -0% (inactive)
CCC(=O)Nc1c(C#N)c2nc3ccccc3nc2n1-c1ccccc1C | 91.7%
COc1ccc(OC)c(C2/C(=C(/O)c3ccccc3)C(=O)C(=O)N2Cc2ccco2)c1 (centres undefined) | 38.1% (inactive)
